Measured values: PubChem BioAssay AID1963850 (Molecular Pharmacology Branch, DTP, NCI, 2024)

Tested on: 192522-019-R-J2-PDC complex tumor spheroid viability
Test: Anticancer human tumor 192522-019-R-J2-PDC patient-derived colon adenocarcinoma cell line growth inhibition [POLQ]
Conditions: for IC50: curve of first compound; for viability, T/C: stronger effect = lower value
Description: Multicellular complex tumor spheroid response to Polymerase (POL) inhibitors (novobiocin, ART-558, RP6685) in combination with a variety of drugs and investigational agents in selected tumor cell lines
The POL inhibitors (novobiocin, ART-558, and RP6685) were evaluated both individually and in combination with standard of care and investigational anticancer small molecules within a complex spheroid model of solid tumors. . Complex spheroids include a stromal component modeled by human endothelial cells (HUVEC) and fibroblasts modeled by human mesenchymal stem cells (MSCs). The concentration ranges selected for each drug and investigational agent were based upon clinically achievable concentrations if the clinical Cmax of the agent was known.
Compounds. The drugs and investigational agents: novobiocin (NSC847541), ART-558 (NSC835418), RP-6685 (NSC848927), peposertib (NSC802822), ceralasertib (NSC780249), elimusertib (NSC800525), camonsertib (NSC841442), AZD-1390 (NSC803789), olaparib (NSC753686), talazoparib (NSC767125), rucaparib (NSC756644), sotorasib (NSC818433), MRTX-1133 (NSC836407), SN-38 (NSC673596), topotecan (NSC609699), epotoside (NSC141540), doxorubicin (NSC123127), gemcitabine (NSC613327), 5-fluorouracil (NSC19893), paclitaxel (NSC125973), vemurafenib (NSC761431), MSA-2 (NSC828583), SN-011 (NSC837082), adavosertib (NSC754352), prexasertib (NSC758257), carboplatin (NSC241240) and oxaliplatin (NSC266046), were obtained from the National Cancer Institute (NCI) Developmental Therapeutics Program Chemical Repository (21). The FDA-approved anticancer drug set is available from the Developmental Therapeutics Program at https://dtp.cancer.gov/organization/dscb/obtaining/. […] The stock solutions were prepared in dimethyl sulfoxide (DMSO, Sigma-Aldrich, St. Louis, MO, cat. D2650), except for the platinum compounds which were prepared in saline (Quality Biological, Gaithersburg, MD, cat. 114-055-101), at 800-fold the tested concentration and stored at -70 degrees C prior to their use. All drugs and investigational agents were tested over a range starting from a high concentration at or near the clinical Cmax and decreasing in half-log increments. If the clinical Cmax for an agent had not been determined, the highest concentration tested was 10 microM, except for SN-38, which was tested at a high concentration of 1 microM.
Cell Culture. All cells were maintained in an incubator at 37 degrees C and 5% CO2 with 95% humidity. The PDC lines were cultured according to standard operating procedures established by the NCI PDMR (https://pdmr.cancer.gov). Table 3 of the manuscript, lists the cell lines along with the number of the three cell types plated to form the mct-spheroids and media for tumor cell growth. After thawing, all PDC lines, except 997537-175-T-J1-PDC and 415267-285-R-J2-PDC, were cultured in Matrigel-coated flasks prepared with a working solution of 1X Ham's F-12 nutrient mix, without supplementation (Thermo Fisher Scientific, cat. 11765054), 100 U/mL penicillin-streptomycin (Thermo Fisher Scientific, cat. 15140122), and 2.5% Matrigel (Corning Inc., Corning, NY, cat. 354248) for the first three passages. The two PDC lines 997537-175-T-J1-PDC and 415267-285-R-J2-PDC were cultured on uncoated flasks. The 857933-349-R-J2-PDC line was cultured in 6C/Colon 1B media containing advanced DMEM/F-12 (Thermo Fisher Scientific, cat. 12634028), 10 mM HEPES (Thermo Fisher Scientific, cat. 15630080), 1X GlutaMAX supplement (Thermo Fisher Scientific, cat. 35050061), 0.1 mg/mL primocin (InvivoGen, San Diego, CA, cat. ant-pm-2), 10% defined fetal bovine serum, heat inactivated (HyClone Laboratories Inc., Logan, UT, cat. SH30070.03HI), 50% L-WRN conditioned media (ATCC, cat. CRL-3276), 1.25 mM N-Acetyl-L-cysteine (Sigma-Aldrich, cat. A9165), 10 mM nicotinamide (Sigma-Aldrich, cat. N0636), 1X B-27 supplement (Thermo Fisher Scientific, cat. 17504044), 1X N-2 supplement (Thermo Fisher Scientific, cat. […]
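Further: spheroids exposed to drugs for seven days before reading.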
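Wherever viability, T/C is given: 100% = DMSO vehicle control viability in luminescence.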

CC(=O)O[C@H]1C(=O)[C@@]2(C)[C@H]([C@H](OC(=O)c3ccccc3)[C@]3(O)C[C@H](OC(=O)[C@H](O)[C@@H](NC(=O)c4ccccc4)c4ccccc4)C(C)=C1C3(C)C)[C@]1(OC(C)=O)CO[C@@H]1C[C@@H]2O + COC1C(OC(N)=O)C(O)C(Oc2ccc3c(O)c(NC(=O)c4ccc(O)c(CC=C(C)C)c4)c(=O)oc3c2C)OC1(C)C
IC50 (second compound 0.0316 µM): > 3 µM | IC50 (second compound 0.1 µM): > 3 µM | IC50 (second compound 0.316 µM): > 3 µM | IC50 (second compound 1 µM): > 3 µM | IC50 (second compound 3.16 µM): > 3 µM | IC50 (second compound 10 µM): > 3 µM | viability, T/C (second compound 0.0316 µM, first compound 0.00949 µM): 94.2% | viability, T/C (second compound 0.0316 µM, first compound 0.03 µM): 72.8% | viability, T/C (second compound 0.0316 µM, first compound 0.0949 µM): 56.6% | viability, T/C (second compound 0.0316 µM, first compound 0.3 µM): 55.9% | viability, T/C (second compound 0.0316 µM, first compound 0.949 µM): 55.2% | viability, T/C (second compound 0.0316 µM, first compound 3 µM): 48.5% | viability, T/C (second compound 0.1 µM, first compound 0.00949 µM): 95.6% | viability, T/C (second compound 0.1 µM, first compound 0.03 µM): 74.7% | viability, T/C (second compound 0.1 µM, first compound 0.0949 µM): 59.5% | viability, T/C (second compound 0.1 µM, first compound 0.3 µM): 54.7% | viability, T/C (second compound 0.1 µM, first compound 0.949 µM): 51.6% | viability, T/C (second compound 0.1 µM, first compound 3 µM): 56.9% | viability, T/C (second compound 0.316 µM, first compound 0.00949 µM): 91.6% | viability, T/C (second compound 0.316 µM, first compound 0.03 µM): 78.1% | viability, T/C (second compound 0.316 µM, first compound 0.0949 µM): 59.6% | viability, T/C (second compound 0.316 µM, first compound 0.3 µM): 61.9% | viability, T/C (second compound 0.316 µM, first compound 0.949 µM): 54.6% | viability, T/C (second compound 0.316 µM, first compound 3 µM): 52.4% | viability, T/C (second compound 1 µM, first compound 0.00949 µM): 102% | viability, T/C (second compound 1 µM, first compound 0.03 µM): 80.6% | viability, T/C (second compound 1 µM, first compound 0.0949 µM): 56.6% | viability, T/C (second compound 1 µM, first compound 0.3 µM): 52.7% | viability, T/C (second compound 1 µM, first compound 0.949 µM): 56.1% | viability, T/C (second compound 1 µM, first compound 3 µM): 54% | viability, T/C (second compound 3.16 µM, first compound 0.00949 µM): 99.1% | viability, T/C (second compound 3.16 µM, first compound 0.03 µM): 84.6% | viability, T/C (second compound 3.16 µM, first compound 0.0949 µM): 61.5% | viability, T/C (second compound 3.16 µM, first compound 0.3 µM): 55.8% | viability, T/C (second compound 3.16 µM, first compound 0.949 µM): 56.1% | viability, T/C (second compound 3.16 µM, first compound 3 µM): 59.7% | viability, T/C (second compound 10 µM, first compound 0.00949 µM): 102% | viability, T/C (second compound 10 µM, first compound 0.03 µM): 76.8% | viability, T/C (second compound 10 µM, first compound 0.0949 µM): 57.1% | viability, T/C (second compound 10 µM, first compound 0.3 µM): 55.4% | viability, T/C (second compound 10 µM, first compound 0.949 µM): 64% | viability, T/C (second compound 10 µM, first compound 3 µM): 63.1%

COc1cccc2c1C(=O)c1c(O)c3c(c(O)c1C2=O)CC(O)(C(=O)CO)CC3OC1CC(N)C(O)C(C)O1 (centres undefined) + COC1C(OC(N)=O)C(O)C(Oc2ccc3c(O)c(NC(=O)c4ccc(O)c(CC=C(C)C)c4)c(=O)oc3c2C)OC1(C)C
IC50 (second compound 0.0316 µM): > 10 µM | IC50 (second compound 0.1 µM): > 10 µM | IC50 (second compound 0.316 µM): > 10 µM | IC50 (second compound 1 µM): > 10 µM | IC50 (second compound 3.16 µM): > 10 µM | IC50 (second compound 10 µM): > 10 µM | viability, T/C (second compound 0.0316 µM, first compound 0.0316 µM): 94.3% | viability, T/C (second compound 0.0316 µM, first compound 0.1 µM): 79.1% | viability, T/C (second compound 0.0316 µM, first compound 0.316 µM): 64.9% | viability, T/C (second compound 0.0316 µM, first compound 1 µM): 78.1% | viability, T/C (second compound 0.0316 µM, first compound 3.16 µM): 65.2% | viability, T/C (second compound 0.0316 µM, first compound 10 µM): 55.3% | viability, T/C (second compound 0.1 µM, first compound 0.0316 µM): 104% | viability, T/C (second compound 0.1 µM, first compound 0.1 µM): 84.4% | viability, T/C (second compound 0.1 µM, first compound 0.316 µM): 65.6% | viability, T/C (second compound 0.1 µM, first compound 1 µM): 78.4% | viability, T/C (second compound 0.1 µM, first compound 3.16 µM): 61.2% | viability, T/C (second compound 0.1 µM, first compound 10 µM): 55.2% | viability, T/C (second compound 0.316 µM, first compound 0.0316 µM): 98.2% | viability, T/C (second compound 0.316 µM, first compound 0.1 µM): 86.4% | viability, T/C (second compound 0.316 µM, first compound 0.316 µM): 61.3% | viability, T/C (second compound 0.316 µM, first compound 1 µM): 79.3% | viability, T/C (second compound 0.316 µM, first compound 3.16 µM): 61.9% | viability, T/C (second compound 0.316 µM, first compound 10 µM): 55.6% | viability, T/C (second compound 1 µM, first compound 0.0316 µM): 104% | viability, T/C (second compound 1 µM, first compound 0.1 µM): 92.8% | viability, T/C (second compound 1 µM, first compound 0.316 µM): 68.7% | viability, T/C (second compound 1 µM, first compound 1 µM): 76.3% | viability, T/C (second compound 1 µM, first compound 3.16 µM): 71% | viability, T/C (second compound 1 µM, first compound 10 µM): 53.1% | viability, T/C (second compound 3.16 µM, first compound 0.0316 µM): 101% | viability, T/C (second compound 3.16 µM, first compound 0.1 µM): 85.5% | viability, T/C (second compound 3.16 µM, first compound 0.316 µM): 69.5% | viability, T/C (second compound 3.16 µM, first compound 1 µM): 73% | viability, T/C (second compound 3.16 µM, first compound 3.16 µM): 67% | viability, T/C (second compound 3.16 µM, first compound 10 µM): 54.7% | viability, T/C (second compound 10 µM, first compound 0.0316 µM): 102% | viability, T/C (second compound 10 µM, first compound 0.1 µM): 87.4% | viability, T/C (second compound 10 µM, first compound 0.316 µM): 66.5% | viability, T/C (second compound 10 µM, first compound 1 µM): 78% | viability, T/C (second compound 10 µM, first compound 3.16 µM): 70.8% | viability, T/C (second compound 10 µM, first compound 10 µM): 58.6%
